# Results reported in patent US20070155835A1, “USE OF ORTHO-PH[…]/OR DERIVATIVES THEREOF FOR INHIBITING THE ASEXUAL REPRODUCTION OF FUNGI” (Henkel Kommanditgesellschaft auf Aktien (Henkel KGaA), priority 2004, published 2007).
# What was measured:
# [1] = system: Aspergillus niger (DSM1988); assay: Sporulation of Aspergillus niger on wort agar plates containing active substance, assessed visually; format: cell-based
# Experimental: (§1) The surfaces of wort agar plates were each contaminated with 100 μl of a germ suspension (10^3 CFU/ml) of Aspergillus niger (DSM1988). Different quantities of active substance (solutions in ethanol, see table for final concentrations) had previously been added to the agar plates. The plates were incubated for 3 days at 25° C. Sporulation was assessed visually, and the sporulation rate (in %) was determined.
# as §1
# [2] = system: Aspergillus niger (DSM1988); assay: Growth of the test strain on wort agar plates containing active substance; format: cell-based
# Experimental: as §1, with “determined. […] A growth-inhibiting or germ-killing effect occurred only at a concentration of 0.05 wt % OPP.” for “determined.”
# as §1
compound,measurement,setting,value
"CC(C)=CCCC(C)=CCCC(C)=CCO [Farnesol, reference compound]",Sporulation [%],"[1]; Farnesol concentration 25 μM, comparative experiment",90%
same,Sporulation [%],"[1]; Farnesol concentration 62.5 μM, comparative experiment",75%
same,Sporulation [%],"[1]; Farnesol concentration 125 μM, comparative experiment",50%
same,Sporulation [%],"[1]; Farnesol concentration 250 μM, comparative experiment",10%
same,Sporulation [%],"[1]; Farnesol concentration 500 μM, comparative experiment",0%
"Oc1ccccc1-c1ccccc1 [OPP, Ortho-Phenylphenol]",Sporulation [%],"[1]; OPP concentration 0.00001 %, wort agar, 3 days at 25° C.",95%
same,Sporulation [%],"[1]; OPP concentration 0.00005 %, wort agar, 3 days at 25° C.",95%
same,Sporulation [%],"[1]; OPP concentration 0.0001 %, wort agar, 3 days at 25° C.",85%
same,Sporulation [%],"[1]; OPP concentration 0.0005 %, wort agar, 3 days at 25° C.",10%
same,Sporulation [%],"[1]; OPP concentration 0.001 %, wort agar, 3 days at 25° C.",0%
same,Sporulation [%],"[1]; OPP concentration 0.005 %, wort agar, 3 days at 25° C.",0%
same,Sporulation [%],"[1]; OPP concentration 0.05 %, wort agar, 3 days at 25° C.",no growth
same,Sporulation [%],"[1]; OPP concentration 0.1 %, wort agar, 3 days at 25° C.",no growth
same,Sporulation [%],"[1]; OPP concentration 1.0 %, wort agar, 3 days at 25° C.",no growth
same,Concentration completely suppressing sporulation relative to growth-inhibiting or germ-killing concentration,[1]; no growth-inhibiting effect at that concentration,fifty times lower
same,Utilization concentration at which sporulation was completely suppressed,"[1]; wort agar, 3 days at 25° C.",0.001 wt %
same,Concentration at which a growth-inhibiting or germ-killing effect occurred,"[2]; wort agar, 3 days at 25° C.",0.05 wt %
Ortho-Phenylphenol/Silicic Acid Ester [OPP/SAE],Sporulation [%],"[1]; OPP/SEA concentration 0.00001 %, wort agar, 3 days at 25° C.",95%
same,Sporulation [%],"[1]; OPP/SEA concentration 0.00005 %, wort agar, 3 days at 25° C.",95%
same,Sporulation [%],"[1]; OPP/SEA concentration 0.0001 %, wort agar, 3 days at 25° C.",95%
same,Sporulation [%],"[1]; OPP/SEA concentration 0.0005 %, wort agar, 3 days at 25° C.",50%
same,Sporulation [%],"[1]; OPP/SEA concentration 0.001 %, wort agar, 3 days at 25° C.",25%
same,Sporulation [%],"[1]; OPP/SEA concentration 0.005 %, wort agar, 3 days at 25° C.",0%
same,Sporulation [%],"[1]; OPP/SEA concentration 0.01 %, wort agar, 3 days at 25° C.",0%
same,Utilization concentration at which sporulation was completely suppressed,"[1]; wort agar, 3 days at 25° C.",0.005 wt %
same,Effect of the concentrations used on growth of the test strain,"[2]; concentrations of the tables, unless otherwise indicated in the tables",did not prevent growth of the test strain
